Test results from PMC4674391 (Archives of toxicology, 2015).
Where a name gives a salt, the structure may show the parent alone.

How the values were obtained:
[1] = system: zfOatp1f1; type: in vitro ADME, zebrafish (Danio rerio)
[2] = system: zfOatp1f2-1; type: in vitro ADME, zebrafish (Danio rerio)
[3] = system: zfOatp4a1; type: in vitro ADME, zebrafish (Danio rerio)
[4] = system: zfOatp2b1; type: in vitro ADME, zebrafish (Danio rerio)
[5] = system: zfOatp1f4-2; type: in vitro ADME, zebrafish (Danio rerio)
[6] = system: zfOatp1f4-1; type: in vitro ADME, zebrafish (Danio rerio)
[7] = system: zfOatp1f3; type: in vitro ADME, zebrafish (Danio rerio)
[8] = system: zfOatp1d1; type: in vitro ADME, zebrafish (Danio rerio)
[9] = system: zfOatp1f2-2; type: in vitro ADME, zebrafish (Danio rerio)
[10] = system: Ser/Thr protein phosphatases (ser/thrPP); settings: cited from earlier work
[11] = system: zfOatp1f4-2; type: in vitro ADME, zebrafish (Danio rerio); remark: listed apart in the source
[12] = system: zfOatp1f1; type: in vitro ADME, zebrafish (Danio rerio); remark: listed apart in the source
[13] = system: zfOatp1f2-1; type: in vitro ADME, zebrafish (Danio rerio); remark: listed apart in the source
[14] = system: OATPs; settings: cited from earlier work
[15] = system: zfOatp1f2-2; type: in vitro ADME, zebrafish (Danio rerio); remark: listed apart in the source
[16] = system: zfOatp1f3; type: in vitro ADME, zebrafish (Danio rerio); remark: listed apart in the source
[17] = system: zfOatp1f4-1; type: in vitro ADME, zebrafish (Danio rerio); remark: listed apart in the source
[18] = system: zfOatp1d1; type: in vitro ADME, zebrafish (Danio rerio); remark: listed apart in the source
[19] = system: carp; settings: in vivo, po; cited from earlier work
[20] = uptake for up to 30 min, transfected HEK293 (Figure S1)

With C[C@]12CC[C@@H]3c4ccc(OS(=O)(=O)O)cc4CC[C@H]3[C@@H]1CCC2=O [E3S, estrone sulfate ammonium salt] the “[3H] E3S transport, prolonged uptake” value [1, 20] was “no [^3H] E3S transport was observed” and the “[3H] E3S transport, prolonged uptake” value [2, 20] was “no [^3H] E3S transport was observed”.
For CN(Cc1cnc2nc(N)nc(N)c2n1)c1ccc(C(=O)N[C@@H](CCC(=O)O)C(=O)O)cc1 [MTX, methotrexate disodium salt], the “transport of Oatp substrate (uptake vs empty vector cells)” value [3] was “did not transport any of the three substrates”, the “transport of Oatp substrate (uptake vs empty vector cells)” value [4] was “did not transport any of the three substrates” and the “transport of Oatp substrate (uptake vs empty vector cells)” value [5] was “none of the other zfOatps transported”. The “transport of Oatp substrate (uptake vs empty vector cells)” value [6] was “none of the other zfOatps transported”, the “transport of Oatp substrate (uptake vs empty vector cells)” value [7] was “none of the other zfOatps transported” and the “transport of Oatp substrate (uptake vs empty vector cells)” value [8] was “transported”. For the same compound, the “transport of Oatp substrate (uptake vs empty vector cells)” value [9] was “none of the other zfOatps transported”, the “transport of Oatp substrate (uptake vs empty vector cells)” value [1] was “did not transport any of the three substrates” and the “transport of Oatp substrate (uptake vs empty vector cells)” value [2] was “did not transport any of the three substrates”.
With C[C@H](CCC(=O)NCCS(=O)(=O)O)[C@H]1CC[C@H]2[C@@H]3[C@H](O)C[C@@H]4C[C@H](O)CC[C@]4(C)[C@H]3C[C@H](O)[C@]12C [TCA, taurocholic acid] the “transport of Oatp substrate (uptake vs empty vector cells)” value [4] was “did not transport any of the three substrates”, the “transport of Oatp substrate (uptake vs empty vector cells)” value [5] was “none of the other zfOatps transported” and the “transport of Oatp substrate (uptake vs empty vector cells)” value [6] was “none of the other zfOatps transported”. For the same compound, the “transport of Oatp substrate (uptake vs empty vector cells)” value [8] was “transported”, the “transport of Oatp substrate (uptake vs empty vector cells)” value [1] was “did not transport any of the three substrates” and the “transport of Oatp substrate (uptake vs empty vector cells)” value [2] was “did not transport any of the three substrates”.
For Microcystin-LF [MC-LF], the “inhibition of ser/thrPP activities” value [10] is given as “approximately equimolar concentrations”, the “MC congener transport (screen)” value [11] is given as “transported” and the “time dependent MC uptake, relative speed” value [11] is given as “Comparable transport”. The “MC congener transport (screen)” value [12] was “absence of MC transport”, the “MC congener transport (screen)” value [13] was “did take up” and the “time dependent MC uptake, relative speed” value [13] was “slower than that observed for zfOatp1d1”. The “MC congener transport by OATPs” value [14] was “transport was demonstrated”, the “MC congener transport (screen)” value [15] was “did not transport any of the four MC-congeners tested” and the “MC congener transport (screen)” value [16] was “did not transport any of the four MC-congeners tested”. For the same compound, the “MC congener transport (screen)” value [17] was “transported”, the “time dependent MC uptake, relative speed” value [17] was “Comparable transport” and the “MC congener transport (screen)” value [18] was “transported all tested MC-congeners”. The “affinity of zfOatp1d1 (Km), MC-LF compared to MC-LR” value [18] was 2 fold, the “concentration dependent uptake (saturability)” value [18] was “saturable” and the “relative Vmax (uptake velocity), MC-LF versus MC-LR” value [18] was 6 fold. For the same compound, the “time within which transport occurred” value [18] was no more than 1 h.
In the case of Microcystin-LR [MC-LR], the “inhibition of ser/thrPP activities” value [10] is listed as “approximately equimolar concentrations”, the “MC congener transport (screen)” value [12] is listed as “absence of MC transport” and the “MC congener transport (screen)” value [13] is listed as “did take up”. The “time dependent MC uptake, relative speed” value [13] was “much slower than MC-LW and MC-LF”, the “MC congener transport by OATPs” value [14] was “comparably minor extent” and the “MC congener transport (screen)” value [15] was “did not transport any of the four MC-congeners tested”. The “MC congener transport (screen)” value [16] was “did not transport any of the four MC-congeners tested”, the “MC-LR in brain and muscle tissue” value [19] was “detectable” and the “pathological changes in hepatopancreas and kidney” value [19] was “time-dependent pathological changes”. For the same compound, the “MC congener transport (screen)” value [18] was “transported all tested MC-congeners”, the “concentration dependent uptake (saturability)” value [18] was “saturable” and the “time up to which uptake is linear” value [18] was “up to 6 h”.
For Microcystin-LW [MC-LW], the “inhibition of ser/thrPP activities” value [10] is given as “approximately equimolar concentrations”, the “MC congener transport (screen)” value [12] is given as “absence of MC transport” and the “MC congener transport (screen)” value [13] is given as “did take up”. The “time dependent MC uptake, relative speed” value [13] was “slower than that observed for zfOatp1d1”, the “MC congener transport by OATPs” value [14] was “transport was demonstrated” and the “MC congener transport (screen)” value [15] was “did not transport any of the four MC-congeners tested”. For the same compound, the “MC congener transport (screen)” value [16] was “did not transport any of the four MC-congeners tested”, the “MC congener transport (screen)” value [18] was “transported all tested MC-congeners” and the “time within which transport occurred” value [18] was no more than 1 h.
For Microcystin-RR [MC-RR], the “inhibition of ser/thrPP activities” value [10] is listed as “approximately equimolar concentrations”, the “MC congener transport (screen)” value [12] is listed as “absence of MC transport” and the “MC congener transport by OATPs” value [14] is listed as “lacked transport”. For the same compound, the “MC congener transport (screen)” value [15] was “did not transport any of the four MC-congeners tested”, the “MC congener transport (screen)” value [16] was “did not transport any of the four MC-congeners tested” and the “MC congener transport (screen)” value [18] was “transported all tested MC-congeners”. The “time after which nearly linear uptake plateaus” value [18] was 12 h.
